According to ChEMBL document CHEMBL3243921, “2-Pyrrolidinylideneureas, a new class of central nervous system agents” (J Med Chem, 1978):
Activity calls are given as the source filed them.

What was measured:
[1] = system: Mus musculus; assay: Muscle relaxant activity in po dosed mouse assessed as blockade of pentylenetetrazol-induced tonic extensor seizure; assay type: functional
[2] = system: Mus musculus; assay: Muscle relaxant activity in mouse assessed as blockade of pentylenetetrazol-induced tonic extensor seizure at 40 mg/kg, po; assay type: functional, organism-based; parameters: dose 40 mg/kg
[3] = system: Mus musculus; assay: Acute toxicity in po dosed mouse assessed as concentration required to produce 50% loss of righting reflex administered as qd for 4 days measured for 1 min post last dose; assay type: organism-based; conditions: in vivo
[4] = system: Mus musculus; assay: Muscle relaxant activity in po dosed mouse assessed as increase in strychnine-induced persistant convulsive threshold; assay type: functional
[5] = system: Mus musculus; assay: Anticonvulsant activity in po dosed mouse assessed as blockade of supramaximal electroshock-induced […] seizure; assay type: functional
[6] = system: Rattus norvegicus; assay: Antianxiety activity in ip dosed rat assessed as effect on increase in punished responses administered qd for 5 days measured every day for 5 days; assay type: functional; conditions: 120 h, read-out: MED
[7] = system: Mus musculus; assay: Blockade of pentylenetetrazol-induced lethality in mouse at 40 mg/kg, po; assay type: functional, organism-based; parameters: dose 40 mg/kg
[8] = Ratio of LD50 for po dosed mouse to PD50 for acute toxicity in po dosed mouse assessed as concentration required to produce 50% loss of righting reflex; assay type: organism-based; conditions: in vivo
[9] = Therapeutic index, ratio of PD50 for acute toxicity in po dosed mouse assessed as concentration required to produce 50% loss of righting reflex to MED causing antianxiety activity in ip dosed rat assessed as effect on increase in punished responses; assay type: organism-based; conditions: in vivo, other: oral (PD50, mouse) and intraperitoneal (MED, rat), read-out: TI
[10] = Acute toxicity in po dosed mouse assessed as mortality administered as qd for 6 days measured on day 7 post last dose; assay type: organism-based; conditions: in vivo
[11] = system: Rattus norvegicus; assay: Antianxiety activity in rat assessed as effect on increase in punished responses at 25 mg/kg, ip qd administered for 5 days measured every day for 5 days; assay type: functional, organism-based; parameters: dose 25 mg/kg
[12] = system: Mus musculus; assay: Sedative activity in mouse assessed as increase in pentylenetetrazol-induced pseudo-convulsive threshold at 200 mg/kg, po relative to control; assay type: functional
[13] = system: Mus musculus; assay: Sedative activity in mouse assessed as increase in pentylenetetrazol-induced pseudo-convulsive threshold at 100 mg/kg, po; assay type: functional, organism-based; parameters: dose 100 mg/kg
[14] = system: Mus musculus; assay: Hypotic activity in mouse assessed as increase in pentylenetetrazol-induced persistant-convulsive threshold at 200 mg/kg, po relative to control; assay type: functional, organism-based; parameters: dose 200 mg/kg
[15] = system: Mus musculus; assay: Sedative activity in mouse assessed as increase in pentylenetetrazol-induced pseudo-convulsive threshold at 25 to 200 mg/kg, po; assay type: functional, organism-based
[16] = Therapeutic index, ratio of PD50 for acute toxicity in po dosed mouse assessed as concentration required to produce 50% loss of righting reflex to MED25 for muscle relaxant activity in po dosed mouse assessed as increase in strychnine-induced persistant convulsive threshold; assay type: organism-based; conditions: in vivo, read-out: TI
[17] = Therapeutic index, ratio of PD50 for acute toxicity in po dosed mouse assessed as concentration required to produce 50% loss of righting reflex to MED20 for muscle relaxant activity in po dosed mouse assessed as blockade of pentylenetetrazol-induced tonic extensor seizure; assay type: organism-based; conditions: in vivo, read-out: TI
[18] = Therapeutic index, ratio of PD50 for acute toxicity in po dosed mouse assessed as concentration required to produce 50% loss of righting reflex to MED20 for anticonvulsant activity in po dosed mouse assessed as blockade of supramaximal electroshock-induced […] seizure; assay type: organism-based; conditions: in vivo, read-out: TI
[19] = system: Mus musculus; assay: Potency index, ratio of methocarbamol MED20 to compound MED20 for anticonvulsant activity in po dosed mouse assessed as blockade of supramaximal electroshock-induced […] seizure; assay type: functional
[20] = system: Mus musculus; assay: Potency index, ratio of chlorzoxazone MED20 to compound MED20 for muscle relaxant activity in po dosed mouse assessed as blockade of pentylenetetrazol-induced tonic extensor seizure; assay type: functional
[21] = system: Mus musculus; assay: Potency index, ratio of methocarbamol MED20 to compound MED20 for muscle relaxant activity in po dosed mouse assessed as blockade of pentylenetetrazol-induced tonic extensor seizure; assay type: functional
[22] = system: Mus musculus; assay: Hypnotic activity in mouse assessed as increase in pentylenetetrazol-induced persistent-convulsive threshold up to 200 mg/kg, po; assay type: functional, organism-based; parameters: dose 200 mg/kg
[23] = system: Mus musculus; assay: Potency index, ratio of chlorzoxazone MED20 to compound MED20 for anticonvulsant activity in po dosed mouse assessed as blockade of supramaximal electroshock-induced […] seizure; assay type: functional
[24] = system: Mus musculus; assay: Sedative activity in mouse assessed as increase in pentylenetetrazol-induced pseudo-convulsive threshold up to 200 mg/kg, po; assay type: functional, organism-based; parameters: dose 200 mg/kg
[25] = system: Mus musculus; assay: Blockade of pentylenetetrazol-induced lethality in mouse assessed as delay in occurrence of death time up to 200 mg/kg, po; assay type: functional
[26] = system: Mus musculus; assay: Hypnotic activity in mouse assessed as increase in pentylenetetrazol-induced persistent-convulsive threshold at 50 mg/kg, po relative to control; assay type: functional
[27] = system: Mus musculus; assay: Sedative-hypnotic activity in mouse assessed as increase in pentylenetetrazol-induced pseudo/persistent-convulsive threshold at 50 to 200 mg/kg, po; assay type: functional, organism-based
[28] = system: Mus musculus; assay: Sedative activity in mouse assessed as increase in pentylenetetrazol-induced pseudo-convulsive threshold at 25 mg/kg, po relative to control; assay type: functional
[29] = system: Mus musculus; assay: Sedative activity in mouse assessed as increase in pentylenetetrazol-induced pseudo-convulsive threshold at 50 mg/kg, po relative to control; assay type: functional
[30] = system: Mus musculus; assay: Sedative-hypnotic activity in mouse assessed as increase in pentylenetetrazol-induced pseudo/persistent-convulsive threshold at 1 to 5 mg/kg, po; assay type: functional, organism-based

SMILES | MED20 [1] [mg/kg] | PD50 [3] [mg/kg] | MED25 [4] [mg/kg] | MED20 [5] [mg/kg] | minimal effective dose [6] [mg/kg] | selectivity ratio [8] | selectivity ratio [9] | LD50 at 144 h [10] [mg/kg] | also measured
CNC1=Nc2ccc(Cl)cc2C(c2ccccc2)=[N+]([O-])C1 [CHLORDIAZEPOXIDE] | 1.5 | 680 | 10 | 71 | 2.5 | 1.5 | 260 | 990 | Activity [2]: Active; Activity [7]: Active
CCCCCCCCCCCCNC(=O)/N=C1\CCCN1 |  |  |  |  |  |  |  |  | Activity [11]: Active
CN1CCC/C1=N\C(=O)Nc1cccc(Cl)c1 | 32 | 950 | 50 | 142 | 15 | 1.6 | 63 | 1500 | Activity [12]: 50%; Activity [13]: inactive; Activity [14]: inactive; Activity [15]: Active
COc1ccccc1OCC(O)COC(N)=O (stereo unspecified) [METHOCARBAMOL] | 150 | 1050 | 310 | 120 | > 25 | 1.9 |  | 2000 | selectivity ratio [16]: 3.4; selectivity ratio [17]: 7; selectivity ratio [18]: 8.7
Cc1cccc(Cl)c1NC(=O)/N=C1\CCCN1C | 28 | 232 | 52 | 43 | > 25 | 1.9 |  | 449 | selectivity ratio [16]: 4.5; Ratio [19]: 3; Ratio [20]: 4; Ratio [21]: 4; Activity [22]: inactive; Ratio [23]: 3; Activity [24]: inactive; Time [25]: 1 min
CN1CCC/C1=N\C(=O)Nc1ccc([N+](=O)[O-])cc1 | 100 | 1200 | >200 | >200 | 15 | 1 | 80 | 1310 | Activity [26]: 45%; Activity [15]: Active; Activity [27]: Active; Activity [28]: 25%; Activity [29]: 73%
CN1C(=O)CN=C(c2ccccc2)c2cc(Cl)ccc21 [DIAZEPAM] | 0.1 |  | 0.17 | 15 | 0.5 |  |  |  | Activity [30]: Active
